Results published in US20220290140A1, “TRANS-CYCLOOCTENE LABELED ANTISENSE OLIGONUCLEOTIDES, RADIO LABELED TETRAZINE AND METHODS” (Biogen MA Inc., priority 2019, published 2022).

Experiments:
[1] = Pretargeted PET/CT imaging, ASO-TCO i.t. then 18F-Tz i.v.; type: in vivo, Sprague-Dawley rats
Experimental: Sprague-Dawley rats were administered ASO-TCO intrathecally (2.5 mM in 30 μL saline). After either 24 hours (center) or 168 hours (right), those rats were then injected I.V. with ^18F-537-Tz (22-30 MBq; […]; 0.2 nmol). Rats were imaged by PET-CT from 75-90 min. post-injection of radiotracer. Control rats (left) received saline only.
FIG. 5 is a bar graph showing Regions of Interest (ROI) drawn from the PET data. Ratios were obtained of % ID/g in tissue of interest (brain and spine) to the reference region (heart). […] Lanes in bar graph depicted from left to right: ASO-TCO (brain:heart); Naive (brain:heart); ASO-TCO (spine:heart); and Naive (spine:heart).
Rats were administered Malat1 ASO-TCO intrathecally (I.T.) and 24 hours later were given ^18F-Tz intravenously (I.V.). They were then imaged 75-90 p.i. by PET/CT.
The same uptake is not seen in rats that received only the ^18F-Tz radiotracer.

[2] = Parent fraction and blood kinetics of tracer in arterial plasma in NHP; type: in vivo, cynomolgus monkey
Experimental: Dynamic PET scans (0-120 min) with arterial input function were performed on a female cynomolgous monkey using ^18F-537-Tz (5.7±0.7 mCi, 0.14±0.12 μg) in order to evaluate the tracer's efficacy in non-human primates. Parent fraction of tracer in arterial plasma was determined by extracting tracer using acetonitrile and analysis by radioHPLC. Baseline scans were performed first, measuring tracer kinetics in the brain. Malat1 ASO-TCO (20 mg in 2.4 mL aCSF) was then injected intrathecally under fluoroscopic guidance and ^18F-537-Tz PET/CT imaging performed at 24 h and 168 h under isoflurane anesthesia. Imaging data were co-registered to a cyno brain atlas, and TAC in subregions of interest were derived from them. Static PET/CT scans were acquired in each imaging session, with the field of view (FOV) oriented to capture the spine. This scan took place 130-160 min p.i. of tracer, and an ROI drawn over the spinal cord with muscle as a reference region.

[3] = Dynamic PET scans of brain, baseline, homologous block and pretargeted; type: in vivo, rat
Experimental: Dynamic PET scans were performed with arterial sampling to determine parent fraction of the tracer ^18F-537-Tz in baseline and pretargeted scans. Baseline imaging with a comparison to a homologous block with non-radioactive compound ^19F-537-Tz at 1 mg/kg was performed on a single rat, where non-radioactive compound was administered i.v. 5 min before injection of tracer. Next, three additional rats were imaged at baseline with no ASO-TCO administered. A final three rats received pretargeted scans and were dosed intrathecally with 0.56 mg Malat1 ASO-TCO in 30 μL saline followed by a 40 μL saline flush. 24 h after injection of the ASO, ^18F-537-Tz was injected intravenously and dynamic PET imaging performed.
Time-activity-curves (TAC) from 0 to 60 min showing the brain subregion distribution of ^18F-537-Tz in rat 2 at baseline and following iv administration of 1 mg/kg of unlabeled […] are illustrated in FIG. 9. […] The average brain regional SUV from 40-60 min of the scans were similar in the baseline and homologous block scans (Table 1).
PET/CT images with summed radioactivity from 0 to 60 min showing the brain distribution of ^18F-537-Tz in the 4 rats scanned at baseline and the 3 rats scanned 24 h after i.t. administration of ASO-TCO are illustrated in FIG. 10. There was an increase in brain uptake of radioactivity observed in all the ASO-TCO dosed rats. There was an increase of ca. […]

[4] = rats treated with ASO-TCO vs control rats that received only tracer, P<0.005
[5] = rat Subject 2, Baseline scan, 40-60 min p.i. of tracer
[6] = rat Subject 2, Postdose (homologous block, 1 mg/kg non-radioactive compound i.v. 5 min before tracer), 40-60 min p.i.
[7] = rats, Baseline group (no ASO-TCO), 40-60 min p.i. of tracer
[8] = rats, Baseline group, 40-60 min p.i. of tracer
[9] = rats, Pretargeted group (0.56 mg Malat1 ASO-TCO i.t. 24 h before tracer), 40-60 min p.i.
[10] = rats, Pretargeted group (Malat1 ASO-TCO i.t. 24 h before tracer), 40-60 min p.i.
[11] = rats, Pretargeted vs Baseline, 40-60 min p.i.

For O=C(Cc1ccc(-c2nncnn2)cc1)NCC[18F] [Compound 1], the “uptake of tracer in brain and spinal cord (PET/CT images)” value ([1]; rats given Malat1 ASO-TCO I.T. 24 hours before tracer I.V., imaged 75-90 p.i.) was “specific uptake”, the “Brain-to-heart ratio from ROIs” value [1, 4] was “significantly higher” and the “spine-to-heart ratio from ROIs” value [1, 4] was “significantly higher”. The “Parent fraction, tracer intact” value ([2]; cynomolgus monkey arterial plasma, over the course of imaging) was greater than 80%, the “Blood kinetics of the tracer” value ([2]; cynomolgus monkey, over 30 min) was “uptake and rapid clearance” and the “SUV Plasma (40-60 min)” value ([3]; rat Subject 2, Baseline scan) was 1.12. The “SUV Brain” value [3, 5] was 1.29, the “SUV Cerebellum” value [3, 5] was 1.38 and the “SUV Cortex” value [3, 5] was 1.07. For the same compound, the “SUV Frontal Cortex” value [3, 5] was 1.16, the “SUV Hippocampus” value [3, 5] was 1.28 and the “SUV Hypothalamus” value [3, 5] was 1.45. For the same compound, the “SUV Thalamus” value [3, 5] was 1.46, the “SUV Plasma (40-60 min)” value ([3]; rat Subject 2, Postdose (homologous block, 1 mg/kg non-radioactive compound i.v. 5 min before tracer)) was 1.45 and the “SUV Brain” value [3, 6] was 1.22. For the same compound, the “SUV Cerebellum” value [3, 6] was 1.38, the “SUV Cortex” value [3, 6] was 1.10 and the “SUV Frontal Cortex” value [3, 6] was 1.24. The “SUV Striatum” value [3, 6] was 1.40, the “SUV Thalamus” value [3, 6] was 1.52 and the “SUV Hippocampus” value ([3]; rat, in vivo) was 1.43. For the same compound, the “SUV Striatum” value ([3]; rat, in vivo) was 1.42, the “SUV Hippocampus” value ([3]; rat, in vivo, iv, 1 mg/kg) was 1.27 and the “SUV Hypothalamus” value ([3]; rat, in vivo, iv, 1 mg/kg) was 1.43. For the same compound, the “SUV Cerebellum” value [3, 7] was 1.52, the “SUV Cortex” value [3, 7] was 1.25 and the “SUV Frontal Cortex” value [3, 7] was 1.33. For the same compound, the “SUV Hypothalamus” value [3, 7] was 1.62, the “SUV Plasma” value [3, 7] was 1.22 and the “SUV Striatum” value [3, 7] was 1.52. The “SUV Thalamus” value [3, 7] was 1.64, the “SUV Whole Brain” value [3, 7] was 1.45 and the “SUV normalized to plasma, Cerebellum” value [3, 8] was 1.27. The “SUV normalized to plasma, Cortex” value [3, 8] was 1.05, the “SUV normalized to plasma, Frontal Cortex” value [3, 8] was 1.11 and the “SUV normalized to plasma, Hippocampus” value [3, 8] was 1.2. The “SUV normalized to plasma, Hypothalamus” value [3, 8] was 1.36, the “SUV normalized to plasma, Striatum” value [3, 8] was 1.27 and the “SUV normalized to plasma, Thalamus” value [3, 8] was 1.37. The “SUV normalized to plasma, Whole Brain” value [3, 8] was 1.21, the “SUV Cerebellum” value [3, 9] was 1.9 and the “SUV Cortex” value [3, 9] was 1.66. For the same compound, the “SUV Frontal Cortex” value [3, 9] was 1.66, the “SUV Hippocampus” value [3, 9] was 1.85 and the “SUV Hypothalamus” value [3, 9] was 1.89. For the same compound, the “SUV Plasma” value [3, 9] was 1.18, the “SUV Striatum” value [3, 9] was 1.77 and the “SUV Thalamus” value [3, 9] was 1.95. The “SUV Whole Brain” value [3, 9] was 1.79, the “SUV normalized to plasma, Cerebellum” value [3, 10] was 1.67 and the “SUV normalized to plasma, Cortex” value [3, 10] was 1.42. The “SUV normalized to plasma, Frontal Cortex” value [3, 10] was 1.43, the “SUV normalized to plasma, Hippocampus” value [3, 10] was 1.61 and the “SUV normalized to plasma, Hypothalamus” value [3, 10] was 1.63. The “SUV normalized to plasma, Striatum” value [3, 10] was 1.47, the “SUV normalized to plasma, Thalamus” value [3, 10] was 1.61 and the “SUV normalized to plasma, Whole Brain” value [3, 10] was 1.53. For the same compound, the “% Change of SUV normalized to plasma, Cerebellum” value ([3]; rats, Pretargeted vs Baseline) was 31%, the “% Change of SUV normalized to plasma, Cortex” value ([3]; rats, Pretargeted vs Baseline) was 35% and the “% Change of SUV normalized to plasma, Frontal Cortex” value ([3]; rats, Pretargeted vs Baseline) was 29%. For the same compound, the “% Change of SUV normalized to plasma, Hippocampus” value ([3]; rats, Pretargeted vs Baseline) was 34%, the “% Change of SUV normalized to plasma, Hypothalamus” value ([3]; rats, Pretargeted vs Baseline) was 20% and the “% Change of SUV normalized to plasma, Striatum” value ([3]; rats, Pretargeted vs Baseline) was 16%. The “% Change of SUV normalized to plasma, Thalamus” value ([3]; rats, Pretargeted vs Baseline) was 18%, the “% Change of SUV normalized to plasma, Whole Brain” value ([3]; rats, Pretargeted vs Baseline) was 26% and the “% Change of SUV Cerebellum” value [3, 11] was 25%. The “% Change of SUV Cortex” value [3, 11] was 33%, the “% Change of SUV Frontal Cortex” value [3, 11] was 25% and the “% Change of SUV Hippocampus” value [3, 11] was 29%. The “% Change of SUV Hypothalamus” value [3, 11] was 17%, the “% Change of SUV Striatum” value [3, 11] was 16% and the “% Change of SUV Thalamus” value [3, 11] was 19%. For the same compound, the “% Change of SUV Whole Brain” value [3, 11] was 23% and the “brain entry of tracer” value ([3]; rats, highest uptake in thalamus/hypothalamus, lowest in cortical regions) was “readily entered the brain”.
